# What was measured:
# [1] = system: Alzheimer's mouse model (5×FAD); assay: Morris water maze (spatial learning, probe test); assay type: in vivo; conditions: 1 mg/kg twice a week, total 20 times
# Method: [Experimental Method: Morris Water maze] An acryl-made platform having a diameter of 10 cm was installed in a circular water tank having a size of diameter×height=150 cm×80 cm and a camera was installed at the center of the water tank on the ceiling where the water tank was placed. Around the water tank, a horizontal cue, a vertical grid cue, and a circular object cue were disposed, respectively. For the experimental preparation, water at about 26° C. was filled in the water tank up to a height of about 1 cm from the top of the platform and a white water paint was dissolved.
# At a first experimental day, the mouse was flooded at one position of the prepared water tank and swam for 3 minutes and then induced to move to the platform location by an experimenter's hand after 3 minutes and left for 1 minute on the platform. After 1 minute, the mouse was lifted and covered by both hands and put in a cage again after 1 minute. This process was repeated three times. […] The process was repeated everyday until a difference between mouse groups was decreased. At the final experimental day, the mouse was flooded in the water tank after removing the platform in the water tank and a video for 90 seconds was recorded and then a moving path and the number of platform pass times of the mouse in the water tank, a time latency of the platform location, and the like were analyzed by using analysis software.
# After 1 mg/kg of PBS or sodium taurodeoxycholate was injected to a control mouse and an Alzheimer's mouse (4 per group) twice a week and a total of 20 times, a result of evaluation a spatial learning ability through a water maze experiment was illustrated in FIG. 2. It was verified that a time required when the Alzheimer's mouse found the platform was shortened by administrating the sodium taurodeoxycholate drug.
# After 1 mg/kg of PBS or sodium taurodeoxycholate was injected to a control mouse and an Alzheimer's mouse (more than 10 per group) twice a week and a total of 20 times, a mouse behavior pattern was tracked in the water tank without the platform. A representative image of the result of tracking the mouse movement in the water tank without the platform was illustrated in FIG. 3.
# In the above experiment, the result of measuring the number of times when the mouse crossed the platform location and a time latency at the platform location was illustrated in FIG. 4 and in the sodium taurodeoxycholate administration mouse group, it was verified that the degree of memorizing the platform was high.
# [2] = system: Alzheimer's animal model (5×FAD); assay: TUNEL staining of apoptotic region in brain tissue; assay type: in vivo, mouse; conditions: frontal cortex, FIG. 8
# Method: [Experimental Method: Tissue fluorescent staining] A mouse was anesthetized, the limbs were fixed and then the mouse was cut to expose the heart by scissors and tweezers. The upper right atrium was slightly cut by the scissors and punctured, a needle was put in the left ventricle, and PBS was injected and perfused. When the colors of the blood vessel and the organs turned to white, a 4% paraformaldehyde (PFA) solution was replaced and injected until muscle contraction occurred and the soles were hard. […] The cut tissue piece was attached on the slide by using a brush and blocked for preventing a nonspecific antibody binding, and then reacted with a specific antibody (coupled with a fluorescence) to a protein to be reported. […] The photographed image was converted into numeral values by measuring the fluorescent strength for each fluorescence by analysis software.
# The brain tissue of the Alzheimer's model mouse administrated with the drug was extracted and a reduction of the lesion such as an apoptotic lesion in the frontal cortex and the hippocampus area was measured by fluorescent-staining, and the result was illustrated in FIG. 8. The PBS or sodium taurodeoxycholate was administrated in the Alzheimer's mouse and a region damaged by apoptosis in the frontal cortex of the administrated mouse was analyzed by TUNEL staining. […]
# [3] = system: Alzheimer's animal model; assay: Blood analysis of biochemical components (metabolites); assay type: in vivo, mouse; conditions: 1 mg/kg twice per week, total 20 times; FIG. 10
# Method: (§1) [Experimental Method: Blood analysis] The blood was obtained from the mouse by cardiac blood collection or orbital blood collection. For analyzing the inflammatory substance, the obtained blood was left for 2 hours at room temperature and centrifuged, a supernatant was taken, and each inflammatory substance was quantitatively analyzed by using a kit and equipment for bioplex. In order to analyze biochemical and hematopoietic cells, the obtained blood was put in an appropriate tube or container and applied to a biochemical analyzer and a hematology analyzer, respectively, to obtain data. After 1 mg/kg of PBS or sodium taurodeoxycholate is injected to the control mouse and the Alzheimer's mouse twice per week and a total of 20 times, the blood of the mouse was extracted and then the biochemical components in the blood were analyzed. The result was illustrated in FIG. 10.
# [4] = system: Alzheimer's animal model; assay: Blood analysis of inflammatory substances (bioplex); assay type: in vivo, mouse; conditions: 1 mg/kg twice per week, total 20 times; FIG. 9
# Method: as §1, with “data. FIG. 9 illustrates a result of analyzing an inflammatory substance in the blood by extracting the blood of the mouse after” for “data. After”, “to a” for “to the”, “and an” for “and the”, “20 times.” for “20 times, the blood of the mouse was extracted and then the biochemical components in the blood were analyzed. The result was illustrated in FIG. 10.”
# [5] = system: Alzheimer's animal model (5×FAD); assay type: in vivo, mouse; conditions: 1 mg/kg twice a week, total 20 times
# [6] = probe test without platform, FIG. 4
smiles,measurement,setting,value
C[C@H](CCC(=O)NCCS(=O)(=O)[O-])[C@H]1CC[C@H]2[C@@H]3CC[C@@H]4C[C@H](O)CC[C@]4(C)[C@H]3C[C@H](O)[C@]12C.[Na+] [sodium taurodeoxycholate],number of times of crossing the platform location,[1]; [6],significantly increased
same,time latency at the platform location,[1]; [6],significantly increased
same,time required when the Alzheimer's mouse found the platform,"[1]; water maze, FIG. 2",shortened
same,moving pattern to the position of the platform,"[1]; water tank without platform, FIG. 3",more actively observed
same,degree of memorizing the platform,"[1]; water tank without platform, FIG. 4",high
same,apoptotic region in the brain tissue,[2],reduced
same,amount of glucose in the blood,[3],decreased
same,amount of CCL3 in the blood,[4],increased
same,expression of iNOS,"[5]; frontal cortex area, FIG. 7",significantly reduced
same,cell distribution of astrocyte,"[5]; frontal cortex, FIGS. 5 and 6",significantly reduced
same,cell distribution of microglia,"[5]; frontal cortex, FIGS. 5 and 6",significantly reduced
same,formation of the amyloid β plague,"[5]; frontal cortex, FIGS. 5 and 6",significantly reduced
same,astrocyte cell distribution,"[5]; hippocampus area, FIGS. 5 and 6",significantly reduced
